One series relates to TMD8 tumor xenograft. Put plainly: TMD8 tumor xenograft model, tumor volume. The note with it: oral gavage. Type of series: in vivo, mice. Also noted: tumor growth: dose or concentration left out as unconfirmed. The procedure: A TMD8 tumor xenograft model was generated by introducing cultured TMD8 cells into irradiated mice. All animal experiments were performed in accordance with the Institutional Animal Care and Use Committee (IACUC) protocol. Male CB17-SCID mice were treated with 1.44 Gy whole body irradiation using a ^60Co radiation source, and seventy-four hours later, 1×10^7 TMD8 cells were inoculated subcutaneously into the right flank. When tumors reached a mean volume of 200 mm^3, mice were randomly assigned to groups (n=13). […] All test compounds were formulated in 5% (v/v) N-Methyl-2-pyrrolidone (NMP)/55% (v/v) Polyethylene Glycol 300 (PEG) 300/40% (v/v) Water/1% (w/v) Vitamin E D-α-Tocopherol Polyethylene Glycol 1000 Succinate (TPGS). Tumor volume was calculated using the following formula: (length×width^2)/2, where length is the longest diameter across the tumor and width is the corresponding perpendicular diameter. Tumor growth inhibition rate was calculated using the following formula: 1−(tumor sizeend of compound treatment−tumor sizebeginning of compound treatment/tumor sizeend of vehicle treatment−tumor sizebeginning of vehicle treatment)×100.
The Analysis of Variance model for repeated measure was used to determine the treatment effect on tumor growth. The model fitted on tumor volume included factors of treatment, time, and their interaction. […]

A further series has as its system p-BTK (Y223). Nature of the series: Western Blot of TMD8 xenograft tumor samples. Format: in vivo, mice. As to conditions: Compound B 10 mg/kg; normalized to total BTK. The method, then:
(§1) Tumor samples obtained from the study were lysed and Western Blot was performed on the samples to determine the level of BTK and S6 phosphorylation, a downstream effector of PI3K signaling. Western Blots were performed according to the Western Blot procedure described in Example 3B above, using antibodies against p-S6 (S235/236), p-BTK (Y223), BTK and actin. Protein levels were determined using Peggy Sue (ProteinSimple) automated Western Blot system. Normalized AUC were determined for each of the treatment groups: p-BTK (Y223) was normalized to total BTK protein, and p-S6 (S235/236) was normalized to actin.

In the next series the test system is p-S6 (S235/236). Put plainly: Western Blot of TMD8 xenograft tumor samples. Format: in vivo, mice. As to conditions: single agent; PI3Kδ inhibitor 5 mg/kg, Compound B 10 mg/kg. The method, then: as §1
In general terms: A western blot detects proteins with antibodies after separation by electrophoresis.

The test system of another series is TMD8. Nature of the series: CellTiter-Glo viability assay at 96 h (Example 5). The note with it: Homo sapiens. Type of series: cell-based. The method, then:
Growth inhibition to Idelalisib or other inhibitors was assessed using CellTiter-Glo viability assay at 96 h. […] Cell lines were analyzed by whole exome sequencing, RNASeq, and phosphoproteomics. Protein expression was measured using Simple Western and SDS/PAGE and western blot. Caspase 3/7 was measured using Caspase-Glo 3/7 assay; apoptosis was measured with Annexin V assay and propidium iodide by flow cytometry.
Cell viability EC50 was determined using a sigmoidal dose-response (variable slope) curve generated from quadruplicate samples. Statistical significance was determined using the student's t-test for cell viability and two-tailed paired t-test for apoptosis experiments in Prism (GraphPad).
A general note: Cellular ATP, detected with luciferase, serves as a proxy for viable cell number.

The next series deals with FSCCL (WSU-FSCCL). Put plainly: CellTiter Glo viability assay after 96 h. Format: cell-based. As to conditions: read-out: EC50, cell viability. The procedure: (§2) Idelalisib resistance was established by continuous passaging of a clonal isolate of WSU-FSCCL in the presence of 1 μM idelalisib; clonal isolates from a passage-matched line (FSCCL^S) and idelalisib-resistant line (FSCCL^R) were generated through 2 rounds of single-cell-limiting dilution. Growth inhibition to idelalisib or other inhibitors was performed after 96 h using CellTiter Glo viability assay. Characterization of mutations and gene expression were identified by whole exome sequencing and RNA-Seq, respectively. Whole cell lysates were analyzed by western blots.

A further series relates to FSCCL^R SFK^HIGH. Put plainly: CellTiter Glo viability assay after 96 h. Type of series: cell-based. The method, then: as §2
Series [1] deals with FSCCL^R clone 1 (PI3KCA E970K). Put plainly: CellTiter Glo viability assay after 96 h. Format: cell-based. The note with it: single agent, read-out: EC50. The method, then:
as §2

Series [2] concerns FSCCL^R clone 2 (PI3KCA N345K). Nature of the series: CellTiter Glo viability assay after 96 h. The note with it: single agent, read-out: EC50. Type of series: cell-based. The method, then:
as §2

In series [3] the test system is FSCCL^R clone 3 (PI3KCA P539R). Put plainly: CellTiter Glo viability assay after 96 h. Format: cell-based. The note with it: single agent, read-out: EC50. The procedure: as §2
Another series relates to FSCCL^R. Nature of the series: CellTiter Glo viability assay after 96 h. Type of series: cell-based. As to conditions: FIG. 16, read-out: EC50, cell viability. The procedure: as §2
In another series the test system is FSCCL^S. Nature of the series: CellTiter Glo viability assay after 96 h. Type of series: cell-based. The procedure:
as §2

For series [4] the following is noted: cited from earlier work.
A further series concerns parental TMD-8. Nature of the series: 96-hour Cell Titer Glo viability assay, parental line. As to conditions: Homo sapiens. Further details: Emax: dose or concentration left out as unconfirmed.

This is an account of results in US20180353512A1, “COMBINATION THERAPIES FOR TREATING B-CELL MALIGNANCIES” (GILEAD SCIENCES, INC., priority 2015, published 2018).

For orientation: EC50 means the concentration giving half of the maximal effect. Usually Cmax stands for the highest concentration seen after dosing.

Where two headings read alike, the source gives them in different places.

Take `CC#CC(=O)N1CC[C@@H](n2c(=O)n(-c3ccc(Oc4ccccc4)cc3)c3c(N)ncnc32)C1` [Compound B, 6-amino-9-[(3R)-1-(2-butynoyl)-3-pyrrolidinyl]-7-(4-phenoxyphenyl)-7,9-dihydro-8H-purin-8-one]: the tumor growth inhibition in the series with TMD8 tumor xenograft (10 mg/kg BID, P<0.05) is 75%. In addition, the “tumor growth” value in the series with TMD8 tumor xenograft is reported as “did not inhibit tumor growth”. The “reduction of p-BTK in tumors” value with p-BTK (Y223) is 35%. In the series on p-S6 (S235/236), the “effect on p-S6 in tumors” value is reported as “did not have an effect”.
Regarding `CCC(Nc1ncnc2[nH]cnc12)c1nc2cccc(F)c2c(=O)n1-c1ccccc1` (centres unmarked) [Idelalisib, 2-(1-((9H-Purin-6-yl)amino)propyl)-5-fluoro-3-phenylquinazolin-4(3H)-one], the EC50 in the series with TMD8 is 42 nM; with FSCCL (WSU-FSCCL), 140 nM; in the series with FSCCL^R SFK^HIGH (read-out: EC50 IDELA (+Dasatinib 10 nM)), 1880 nM; in the series with FSCCL^R SFK^HIGH (read-out: EC50 IDELA (+ENTO 680 nM)), 2270 nM; in [1], above 3000 nM; in series [2] it was above 3000 nM. In addition, the EC50 in [3] is above 3000 nM; in the series on FSCCL^R it was above 10000 nM; in the series on FSCCL^S (FIG. 16, read-out: EC50, cell viability) it was 100 nM; in the series with FSCCL^S (PI3KCA WT, Table 13, single agent, read-out: EC50), 110 nM; with FSCCL^S (Table 14, single agent, read-out: EC50) it was 213 nM; with FSCCL^S (Table 15, single agent, read-out: EC50) it was 213 nM. The EC50 with parental TMD-8 (TMD8, read-out: EC50, cell viability) was 54 nM. The “clinical Cmin” value in series [4] is reported as 103 nM. The Cmax in [4] (clinical) is 591 nM. In the series with parental TMD-8 (TMD8, read-out: Emax, growth inhibition), the Emax is 86%.
